From patent US20140329706A1, “AFFINITY TAGS, AND RELATED AFFINITY LIGANDS, ENGINEERED PROTEINS, MODIFIED SUPPORTS, COMPOSITIONS, METHODS AND SYSTEMS” (CALIFORNIA INSTITUTE OF TECHNOLOGY, priority 2013, published 2014)
Read-outs that look alike come from different tables or passages of the source. Where no end group is shown, it is not given here. MBP = maltose binding protein (fusion tag)

Key:
[1] = target: T1, PSD-95 PDZ2 coupled to a solid support (Mus musculus, UniProt Q62108); assay: Binding of NR2B tail truncation fusion proteins to PSD-95 PDZ2 affinity resin; details: elution with SIESDV peptide, SDS-PAGE
T1 construct: pJExpress414 plasmids containing a gene coding for the PDZ2 domain of PSD-95; made in house; host or cells: E. coli BL21(DE3)
Method: For the experiment, fusion proteins containing THX fused to varying numbers of residues from the NR2B Tail ([…]) were expressed in BL21(DE3) E. coli cells. Single colonies of BL21(DE3) cells harboring pJExpress414 plasmids containing genes of interest were grown overnight at 37° C. in 5 ml of lysogeny broth (LB) (Cat. No. L9110, Teknova, Hollister, Calif.) supplemented with 100 ug/ml carbenicillin. Overnight cultures were diluted 1:500 into Overnight Express Instant Terrific Broth (TB) Media (Cat. No. 71491, EMD Millipore, Billerica, Mass.), grown for 16 h at 37° C., pelleted by centrifugation, and flash frozen in liquid nitrogen. Bacterial cell pellets (0.4-2.5 grams) containing fusions of THX fused to varying numbers of residues from the NR2B Tail ([…]) were resuspended in 5 ml/g cell paste of BugBuster Lysis Buffer [1× BugBuster (Cat. No. 70921, EMD Millipore, Billerica Mass.), 50 mM HEPES, 150 mM NaCl, 5 mM TCEP, 0.5 mM EDTA, 10 mM MgCl2, 2 mM PMSF, Complete Protease Inhibitor supplemented with 25 U/ml Benzonase and 10 U/ml ReadyLyse]. Resuspended cells were incubated on a shaking platform at low speed for 20 minutes at room temperature before the lysate was clarified by centrifugation at 16,000×g for 30 min at 4° C. […] Eluted protein was analyzed on 4-12% bis-tris SDS-PAGE gels and proteins were detected by Gel Code Blue staining.
For the experiment, fusion proteins containing MBP fused to varying numbers of residues from the NR2B Tail ([…]) were expressed in BL21(DE3) E. coli cells. […] Bacterial cell pellets (0.4-2.5 grams) containing fusions of MBP fused to varying numbers of residues from the NR2B Tail ([…]) were resuspended in 5 ml/g cell paste of BugBuster Lysis Buffer [1× BugBuster (Cat. No. 70921, EMD Millipore, Billerica Mass.), 50 mM HEPES, 150 mM NaCl, 5 mM TCEP, 0.5 mM EDTA, 10 mM MgCl2, 2 mM PMSF, Complete Protease Inhibitor supplemented with 25 U/ml Benzonase and 10 U/ml ReadyLyse]. […]

[2] = system: NR2B C-terminal PDZ domain binding peptide, 1× nNOS PDZ-β-hairpin domains or 2× nNOS PDZ-β-hairpin domains; assay: Binding of control MBP or GST to peptide and nNOS PDZ affinity resins; details: expressed alone without a PDZ domain
Excerpt: In order to test the hypothesis, PSD-95 PDZ2 domains (e.g. Type C PDZ affinity tags) were fused N- or C-terminally to MBP, or internally between an MBP and GST proteins and purified using affinity chromatography resins comprised of NR2B C-terminal PDZ domain binding peptide (H3N+-[…]-COO—), 1× nNOS PDZ-β-hairpin domains or 2× nNOS PDZ-β-hairpin domains. […] Tags performed equally when fused internally or C-terminally, however N-terminal tag fusions were purified in slightly lower yield.
For the experiment, MBP, GST and PSD-95 PDZ2 domains protein or fusion proteins consisting of MBP and/or GST fused in frame with N-terminal, internal or C-terminal PSD-95 PDZ2 domains (e.g. Type C PDZ affinity tags) were expressed in BL21(DE3) E. coli cells. […] Bacterial cell pellets (0.4-2.5 grams) containing the proteins of interest were resuspended in 5 ml/g cell paste of BugBuster Lysis Buffer [1× BugBuster (Cat. No. 70921, EMD Millipore, Billerica Mass.), 50 mM HEPES, 150 mM NaCl, 5 mM TCEP, 0.5 mM EDTA, 10 mM MgCl2, 2 mM PMSF, Complete Protease Inhibitor supplemented with 25 U/ml Benzonase and 10 U/ml ReadyLyse]. […] Eluted protein was analyzed on 4-12% bis-tris SDS-PAGE gels and proteins were detected by Gel Code Blue staining.

[3] = refs (54-58); read-out: approximate KD; cited from earlier work
[4] = untagged LacZ, Wallenfels & Malhotra, cited from earlier work
[5] = target: PDZ2 domain of PSD-95 (Rattus norvegicus, UniProt P31016); details: cited from earlier work
[6] = target: PDZ1 domain of PSD-95 (Rattus norvegicus, UniProt P31016); details: cited from earlier work

T1 sequence (Q62108 160-246 limits assumed): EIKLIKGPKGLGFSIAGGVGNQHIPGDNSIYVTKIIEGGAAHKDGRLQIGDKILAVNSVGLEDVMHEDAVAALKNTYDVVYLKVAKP

GST-EKLSSIESD: GST fused to NR2B tail sequence lacking the C-terminal valine ({GST}-EKLSSIESD)
binding to and elution from PSD-95 PDZ2 matrix [1]: abolished binding to the column

GST: glutathione-S-transferase, known affinity tag and control fusion partner
binding to affinity resins [2]: did not bind to any of the three affinity resins
Kd [3]: 40000 to 170000 nM

IESDV
binding to and elution from PSD-95 PDZ2 matrix [1]: required for effective binding to and elution from the PDZ2 PSD-95 matrix

LacZ: untagged β-Galactosidase, literature values
Km ([4]; ONPG): 161 µM
VMAX (umol ONPG/mg protein*min) [4]: 178* umol ONPG/mg protein*min

MBP-EKLSSIESD: MBP fused to NR2B tail sequence lacking the C-terminal valine ({MBP}-EKLSSIESD)
binding to and elution from PSD-95 PDZ2 matrix [1]: abolished binding to the column

SIESDV
Kd ([5]; ref (49)): 700 nM
Kd ([5]; ref (134)): 1300 nM
Kd ([6]; ref (49)): 2300 nM
Kd ([6]; ref (134)): 9700 nM
